According to PubChem BioAssay AID330 (DTP/NCI, 2004):
Several values for one entry are separate records, joined by “and”; a condition that tells them apart may be missing. Equal entries are not always repeated. Toxic doses and inconclusive results are not listed. The calls were made as follows: active = survival T/C of 150% or more; inactive = T/C below 125% in these data. Square brackets hold non-standard residues; d marks the D form. Peptide text beside a SMILES is read from it. * marks the point of attachment. ξ: configuration not given here. ξF = NC(Cc1ccccc1)C(=O)O; Cbz = O=C(OCc1ccccc1)*; Sar = CNCC(=O)O

Tested on: P388 leukemia ip, CD2F1 mice, survival T/C
Assay: NCI In Vivo Anticancer Drug Screen. Data for tumor model P388 Leukemia (intraperitoneal) in CD2F1 (CDF1) mice
Conditions: endpoint: median survival time, higher = longer survival
In short: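 Mice carrying the transplanted tumor received test compound or vehicle. Survival was recorded in each group, and the value is the treated-group measurement divided by that of the vehicle-treated control group.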

[1] = dose: 12.5 mg/kg/injection, schedule: Q01DX009 (ip), vehicle: saline with Tween-80
[2] = dose: 25.0 mg/kg/injection, schedule: Q01DX009 (ip), vehicle: saline with Tween-80
[3] = dose: 100.0 mg/kg/injection, schedule: Q01DX001 (ip), vehicle: saline with Tween-80
[4] = dose: 200.0 mg/kg/injection, schedule: Q01DX001 (ip), vehicle: saline with Tween-80
[5] = dose: 60.0 mg/kg/injection, schedule: Q01DX005 (ip), vehicle: Klucel (hydroxypropylcellulose) (HPC)
[6] = dose: 50.0 mg/kg/injection, schedule: Q01DX009 (ip), vehicle: saline with Tween-80
[7] = dose: 100.0 mg/kg/injection, schedule: Q01DX009 (ip), vehicle: saline with Tween-80
[8] = dose: 200.0 mg/kg/injection, schedule: Q01DX009 (ip), vehicle: saline with Tween-80
[9] = dose: 50.0 mg/kg/injection, schedule: Q01DX005 (ip), vehicle: saline with Tween-80
[10] = dose: 100.0 mg/kg/injection, schedule: Q01DX005 (ip), vehicle: saline with Tween-80
[11] = dose: 200.0 mg/kg/injection, schedule: Q01DX005 (ip), vehicle: saline with Tween-80
[12] = dose: 50.0 mg/kg/injection, schedule: Q01DX009 (ip), vehicle: Klucel (hydroxypropylcellulose) (HPC)
[13] = dose: 100.0 mg/kg/injection, schedule: Q01DX009 (ip), vehicle: Klucel (hydroxypropylcellulose) (HPC)
[14] = dose: 200.0 mg/kg/injection, schedule: Q01DX009 (ip), vehicle: Klucel (hydroxypropylcellulose) (HPC)

Measured: T/C

CNc1ccc(/C=C/c2ccnc3ccccc23)cc1
inactive: dose: 3.12 mg/kg/injection, schedule: Q01DX009 (ip), vehicle: Klucel (hydroxypropylcellulose) (HPC) 95 % of control and 98 % of control | dose: 6.25 mg/kg/injection, schedule: Q01DX009 (ip), vehicle: Klucel (hydroxypropylcellulose) (HPC) 108 % of control and 111 % of control and 112 % of control | dose: 12.5 mg/kg/injection, schedule: Q01DX009 (ip), vehicle: Klucel (hydroxypropylcellulose) (HPC) 113 % of control and 97 % of control | dose: 25.0 mg/kg/injection, schedule: Q01DX009 (ip), vehicle: Klucel (hydroxypropylcellulose) (HPC) 109 % of control and 87 % of control

CCN(CC)CCC[Si]1(C)c2ccccc2CCc2ccccc21
inactive: dose: 25.0 mg/kg/injection, schedule: Q04DX003 (ip), vehicle: saline 111 % of control | dose: 50.0 mg/kg/injection, schedule: Q04DX003 (ip), vehicle: saline 102 % of control | dose: 100.0 mg/kg/injection, schedule: Q04DX003 (ip), vehicle: saline 92 % of control

Nc1nccc(CC(O)(c2ccccc2)c2ccccc2)n1
inactive: dose: 15.0 mg/kg/injection, schedule: Q01DX005 (ip), vehicle: saline with Tween-80 102 % of control | dose: 30.0 mg/kg/injection, schedule: Q01DX005 (ip), vehicle: saline with Tween-80 102 % of control | dose: 60.0 mg/kg/injection, schedule: Q01DX005 (ip), vehicle: saline with Tween-80 99 % of control and 100 % of control | dose: 120.0 mg/kg/injection, schedule: Q01DX005 (ip), vehicle: saline with Tween-80 95 % of control | dose: 240.0 mg/kg/injection, schedule: Q01DX005 (ip), vehicle: saline with Tween-80 87 % of control

CC1(C)O[C@@H]2C[C@H]3[C@@H]4CCC5=CC(=O)C=C[C@]5(C)[C@@]4(F)[C@@H](O)C[C@]3(C)[C@]2(C(=O)CO)O1
inactive: [1] 109 % of control | [2] 109 % of control

C=C1OC(CC(C)C)=C(C(=O)OC(C)(C)C)C1C (centres undefined)
inactive: [3] 99 % of control | [4] 99 % of control | dose: 400.0 mg/kg/injection, schedule: Q01DX001 (ip), vehicle: saline with Tween-80 100 % of control

COc1cccc(/C=C2/C(=O)N(c3ccccc3)N=C2C)c1OC
inactive: [5] 101 % of control | dose: 120.0 mg/kg/injection, schedule: Q01DX005 (ip), vehicle: Klucel (hydroxypropylcellulose) (HPC) 100 % of control | dose: 240.0 mg/kg/injection, schedule: Q01DX005 (ip), vehicle: Klucel (hydroxypropylcellulose) (HPC) 110 % of control

CC(=O)Nc1nc(N)nc(NC(C)=O)c1N=O
inactive: [6] 110 % of control | [7] 119 % of control | [8] 117 % of control

CN(CC(=O)NC(Cc1ccccc1)C(=O)O)C(=O)OCc1ccccc1 (centres undefined) (Cbz-[Sar]-[ξF]-OH)
inactive: [9] 105 % of control | [10] 102 % of control | [11] 100 % of control

Nc1ccccc1SC1=C(Cl)C(=O)c2ccccc2C1=O
inactive: dose: 6.25 mg/kg/injection, schedule: Q01DX009 (ip), vehicle: saline with Tween-80 95 % of control | [1] 94 % of control | [2] 103 % of control

N#CC1C(=O)NC(=O)C(C#N)C1c1ccc(Cl)cc1Cl (centres undefined)
inactive: [12] 96 % of control | [13] 105 % of control | [14] 107 % of control

CCOC(=O)N1CCc2cc3c(cc2C1Cc1ccc(OC)c(OC)c1COC(C)=O)OCO3 (centres undefined)
inactive: [9] 100 % of control | [10] 100 % of control | [11] 89 % of control

Cc1ccc(S(=O)(=O)OCCOCCOc2ccc3ccccc3c2-c2c(OCCOS(=O)(=O)c3ccc(C)cc3)ccc3ccccc23)cc1
inactive: [3] 89 % of control | [4] 100 % of control

FC(F)(F)SN1CN(SC(F)(F)F)CN(SC(F)(F)F)CN(SC(F)(F)F)CN(SC(F)(F)F)C1
inactive: dose: 60.0 mg/kg/injection, schedule: Q01DX005 (ip), vehicle: saline 92 % of control | dose: 120.0 mg/kg/injection, schedule: Q01DX005 (ip), vehicle: saline 92 % of control

Cc1ccc(-c2nc3n(c2/C=N/NS(=O)(=O)c2ccc(C)cc2)CCS3)cc1
inactive: dose: 100.0 mg/kg/injection, schedule: Q01DX001 (ip), vehicle: Klucel (hydroxypropylcellulose) (HPC) 100 % of control | dose: 200.0 mg/kg/injection, schedule: Q01DX001 (ip), vehicle: Klucel (hydroxypropylcellulose) (HPC) 93 % of control | dose: 400.0 mg/kg/injection, schedule: Q01DX001 (ip), vehicle: Klucel (hydroxypropylcellulose) (HPC) 91 % of control

Cc1ccc2[nH]c(=O)oc2c1
inactive: dose: 25.0 mg/kg/injection, schedule: Q04DX002 (ip), vehicle: saline with Tween-80 90 % of control | dose: 50.0 mg/kg/injection, schedule: Q04DX002 (ip), vehicle: saline with Tween-80 101 % of control

C=CCOC1CC(C)(O)Cc2cc3c(c(O)c21)C(=O)c1c(O)cc2c(c1C3=O)OC1OC2(C)C(O)C(N(C)C)C1O (centres undefined)
inactive: dose: 1.25 mg/kg/injection, schedule: Q01DX009 (ip), vehicle: other 114 % of control | dose: 2.5 mg/kg/injection, schedule: Q01DX009 (ip), vehicle: other 120 % of control | dose: 10.0 mg/kg/injection, schedule: Q01DX009 (ip), vehicle: other 123 % of control

COc1ccc(OC)c(NC(=O)Sc2c(Cl)c(Cl)nc(Cl)c2Cl)c1
inactive: [12] 120 % of control

C=C1C(=O)OC2/C=C(\CO)C3OC3C3OC3(C)CC(OC(=O)/C(=C/C)COC(C)=O)C12 (centres undefined)
inactive: dose: 25.0 mg/kg/injection, schedule: Q01DX005 (ip), vehicle: Klucel (hydroxypropylcellulose) (HPC) 98 % of control | dose: 50.0 mg/kg/injection, schedule: Q01DX005 (ip), vehicle: Klucel (hydroxypropylcellulose) (HPC) 114 % of control

CN(C)C(=O)n1cc(Cl)c(=O)c2c3ncn(C)c3ccc21
inactive: [5] 108 % of control | dose: 100.0 mg/kg/injection, schedule: Q01DX005 (ip), vehicle: Klucel (hydroxypropylcellulose) (HPC) 101 % of control | dose: 200.0 mg/kg/injection, schedule: Q01DX005 (ip), vehicle: Klucel (hydroxypropylcellulose) (HPC) 100 % of control

COc1cc(OC(=O)N(CCCl)N=O)cc(OC)c1OC
inactive: dose: 12.5 mg/kg/injection, schedule: Q01DX001 (ip), vehicle: Klucel (hydroxypropylcellulose) (HPC) 112 % of control | dose: 25.0 mg/kg/injection, schedule: Q01DX001 (ip), vehicle: Klucel (hydroxypropylcellulose) (HPC) 101 % of control | dose: 50.0 mg/kg/injection, schedule: Q01DX001 (ip), vehicle: Klucel (hydroxypropylcellulose) (HPC) 103 % of control

CCC(SC)C(=O)c1ccccc1 (centres undefined)
inactive: [2] 114 % of control | [6] 100 % of control | [7] 101 % of control

Nc1ccc(-c2ccc(N)c(Cl)c2)cc1Cl
inactive: [6] 104 % of control | [7] 114 % of control | [8] 112 % of control

COc1cccc(/C=C2\CCc3ccccc3C2=O)c1
inactive: [12] 100 % of control | [13] 99 % of control | [14] 106 % of control

CC1(C)C2CCC([CH2][Hg][Cl])C1C2 (centres undefined)
inactive: dose: 2.44 mg/kg/injection, schedule: Q01DX009 (ip), vehicle: saline with Tween-80 100 % of control | dose: 3.66 mg/kg/injection, schedule: Q01DX009 (ip), vehicle: saline with Tween-80 100 % of control | dose: 5.55 mg/kg/injection, schedule: Q01DX009 (ip), vehicle: other 113 % of control | dose: 5.55 mg/kg/injection, schedule: Q01DX009 (ip), vehicle: saline with Tween-80 100 % of control and 91 % of control | dose: 6.25 mg/kg/injection, schedule: Q04DX003 (ip), vehicle: other 105 % of control | dose: 8.33 mg/kg/injection, schedule: Q01DX009 (ip), vehicle: saline with Tween-80 108 % of control and 95 % of control | dose: 12.5 mg/kg/injection, schedule: Q01DX009 (ip), vehicle: other 86 % of control | dose: 12.5 mg/kg/injection, schedule: Q04DX003 (ip), vehicle: other 100 % of control | dose: 25.0 mg/kg/injection, schedule: Q04DX003 (ip), vehicle: other 100 % of control

C=C1C(C)C2C(Cc3ccccc3)NC(=O)C23C(OC(C)=O)C=CC(C)(O)C(=O)C(C)C/C=C/C3C1O (centres undefined)
inactive: dose: 0.62 mg/kg/injection, schedule: Q01DX009 (ip), vehicle: Klucel (hydroxypropylcellulose) (HPC) 107 % of control | dose: 0.63 mg/kg/injection, schedule: Q01DX009 (ip), vehicle: Klucel (hydroxypropylcellulose) (HPC) 107 % of control | dose: 1.25 mg/kg/injection, schedule: Q01DX009 (ip), vehicle: Klucel (hydroxypropylcellulose) (HPC) 107 % of control and 97 % of control | dose: 2.5 mg/kg/injection, schedule: Q01DX009 (ip), vehicle: Klucel (hydroxypropylcellulose) (HPC) 107 % of control and 120 % of control | dose: 5.0 mg/kg/injection, schedule: Q01DX009 (ip), vehicle: Klucel (hydroxypropylcellulose) (HPC) 100 % of control and 103 % of control
